Source: patent publication US20260232851A1, “METHODS FOR THE DETECTION AND DIAGNOSIS OF CANCERS ASSOCIATED WITH OVEREXPRESSION OF PSMA RECEPTOR” (CLARITY PHARMACEUTICALS LIMITED, priority 2023, published 2026)
Entries after “also recorded” stand apart in the source; their conditions may differ. Marks after values point to notes of the source that are not given here.

Legend:
[1] = target: T1, PSMA receptor (Homo sapiens, UniProt Q04609); experiment: PET/CT lesion intensity (SUVmax, SUVmean, TTBR) in patients with untreated primary prostate cancer; format: in vivo; settings: for SUVmax Median Difference / SUVmean Median Difference / TTBR Median Difference: ^64Cu vs ^68Ga; for Tumor to background ratio compared between ^64Cu-Sar-bisPSMA and ^68Ga-PSMA-11 (words): concordant lesions, FIG. 6; for Tumor to background ratio compared between ^64Cu-Sar-bisPSMA and ^68Ga-PSMA-11 (words) / SUVmean of lesions compared between ^64Cu-Sar-bisPSMA and ^68Ga-PSMA-11 (words) / SUVmax of lesions compared between ^64Cu-Sar-bisPSMA and ^68Ga-PSMA-11 (words): two readers; for SUVmean of lesions compared between ^64Cu-Sar-bisPSMA and ^68Ga-PSMA-11 (words) / SUVmax of lesions compared between ^64Cu-Sar-bisPSMA and ^68Ga-PSMA-11 (words): same subjects; for SUVmean of lesions compared between ^64Cu-Sar-bisPSMA and ^68Ga-PSMA-11 (words): FIG. 5; for SUVmax of lesions compared between ^64Cu-Sar-bisPSMA and ^68Ga-PSMA-11 (words): FIGS. 2, 4
T1 construct: localises at sites that overexpress the PSMA receptor and are indicative of a cancer; from tissue; host or cells: Primary prostate cancer and metastatic lesions (lymph node, bone, prostatic bed) in living patients
Procedure: (§1) Patients with untreated, histopathology-proven, intermediate- to high-risk PC, planned for radical prostatectomy underwent ^68Ga-PSMA-11 PET/CT per institutional practice and were subsequently allocated to 1 out of 3 dose cohorts (1:1:3) to receive either 100 MBq, 150 MBq or 200 MBq of ^64Cu-SAR-bisPSMA, respectively. The specified dose of ^64Cu-Sar-bisPSMA was administered to each patient as a single bolus IV injection. […] PET/CT scans at other times after injection of the compound were acquired as required.
(§2) Patients were scanned using the standard clinical whole-body PET/CT acquisition protocol defined for each clinical site and in accordance with the Image Acquisition Manual, which contains details of scan acquisition, processing parameters and quality assurance procedures. The same scanner was used for each visit. Typical imaging acquisition parameters are below:
(§3) Two independent, blinded, central readers assessed the detection of primary PC on the 200 MBq ^64Cu-SAR-bisPSMA PET/CTs as the primary endpoint. To compare the intensity of lesions on ^68Ga-PSMA-11 and ^64Cu-SAR-bisPSMA PET, both readers determined the SUVs (SUVmax, SUVmean) and tumour-to-background ratio (ratio of lesion SUVmax and background SUVmean) in up to 5 concordant lesions between ^68Ga-PSMA-11 and ^64Cu-SAR-bisPSMA PET/CT as an exploratory endpoint.
Tables 1 and 2 below compare SUV parameters obtained from PET/CT images after administration of ^68Ga-PSMA-11 and a dose of 200 MBq of ^64Cu-SAR-bisPSMA from each reader.
Tables 3 and 4 below compare SUV parameters obtained from PET/CT images after administration of ^68Ga-PSMA-11 (200 MBq) and ^64Cu-SAR-bisPSMA (200 MBq) from each reader.

[2] = target: T1, PSMA receptor; experiment: Blinded central reader detection of primary prostate cancer and lesions on PET/CT; format: in vivo; settings: for % TPR (True Positive Rate), detection of primary prostate cancer: 200 MBq ^64Cu-Sar-bisPSMA; for % FNR (False Negative Rate): indeterminate results analysed as negative; for Detection of secondary lesion in lymph node by PET/CT (FIG. 3): same subject imaged with both tracers
Procedure: as §1, §2, §3
Table 5 compares the number of positive, negative and indeterminate images as assessed by each reader. Reader 1 detected primary prostate cancer in 100% of patients to whom 200 MBq of ^64Cu-Sar-bisPSMA was administered, while Reader 2 detected 85.7% of patients. This is in contrast to 77.8% and 83.3%, respectively, when ^68Ga-PSMA-11 was administered.
The number of lesions detected by each reader with imaging by either ^64Cu-Sar-bisPSMA or ^68Ga-PSMA-11 was evaluated. For both readers, the total number of lesions, the mean and median number of lesions detected as a result of imaging by ^64Cu-Sar-bisPSMA was higher when compared with imaging by ^68Ga-PSMA-11, with the difference in these values being statistically significant.

[3] = system: LNCap tumor; experiment: Ex vivo tumor uptake in LNCap tumor bearing NSG mice
From the text: Ex vivo tumor uptake expressed as percentage injected activitiy per gram of tissue (% lAg) (mean±/−SEM, n=3/group) in LNCap tumor bearing NSG mice following injection of either monomeric [^64Cu]Cu-SarPSMA (2 MBq, 0.9 nmol of peptide) or dimeric [^64Cu]Cu-Sar-bisPSMA (2 MBq, 0.2 nmol of peptide).

[4] = Table 1, first reader, 200 MBq ^64Cu-SAR-bisPSMA, N=17
[5] = Table 2, second reader, 200 MBq ^64Cu-SAR-bisPSMA, N=13
[6] = Reader 1, 200 MBq cohort, scans/evaluable scans
[7] = Reader 2, 200 MBq cohort, 4 ^64Cu scans excluded as non-evaluable

T1 sequence (Q04609 whole entry): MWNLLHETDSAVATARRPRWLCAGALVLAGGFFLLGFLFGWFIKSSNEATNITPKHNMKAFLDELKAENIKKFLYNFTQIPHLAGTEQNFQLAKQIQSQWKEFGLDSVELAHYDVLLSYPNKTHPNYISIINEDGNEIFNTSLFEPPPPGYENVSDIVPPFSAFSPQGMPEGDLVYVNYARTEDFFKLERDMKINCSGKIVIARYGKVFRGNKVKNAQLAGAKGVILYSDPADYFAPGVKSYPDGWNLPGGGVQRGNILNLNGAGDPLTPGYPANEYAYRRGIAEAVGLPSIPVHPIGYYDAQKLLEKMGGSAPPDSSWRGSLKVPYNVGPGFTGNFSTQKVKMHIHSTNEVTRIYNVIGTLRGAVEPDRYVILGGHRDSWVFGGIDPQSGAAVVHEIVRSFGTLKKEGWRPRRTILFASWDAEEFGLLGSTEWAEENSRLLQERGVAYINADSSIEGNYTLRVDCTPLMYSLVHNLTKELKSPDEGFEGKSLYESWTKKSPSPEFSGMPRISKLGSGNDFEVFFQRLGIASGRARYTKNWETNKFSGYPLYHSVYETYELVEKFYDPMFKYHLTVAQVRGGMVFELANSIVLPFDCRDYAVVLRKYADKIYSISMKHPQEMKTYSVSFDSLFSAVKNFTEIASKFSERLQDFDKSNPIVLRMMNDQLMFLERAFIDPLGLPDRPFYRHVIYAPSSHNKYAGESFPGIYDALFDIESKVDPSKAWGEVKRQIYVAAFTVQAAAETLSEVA

Sar-bisPSMA [^64Cu-SAR-bisPSMA]
SUVmax Max [1, 4]: 100
SUVmax Median [1, 4]: 31.40
SUVmax Min [1, 4]: 8
SUVmean Max [1, 4]: 69.9
SUVmean Mean [1, 4]: 27.25
SUVmean Median [1, 4]: 21.76
SUVmean Min [1, 4]: 5.5
TTBR (Tumour-to-Background Ratio) Mean [1, 4]: 77.25
TTBR Max [1, 4]: 227.3
TTBR Median [1, 4]: 49.07
TTBR Min [1, 4]: 10.3
SUVmax Median Difference ([1]; Table 1, first reader, N=17): 14.85
SUVmean Median Difference ([1]; Table 1, first reader, N=17): 9.64
TTBR Median Difference ([1]; Table 1, first reader, N=17): 27.15
SUVmax Mean ([1]; Table 1, first reader, ^68Ga-PSMA-11 vs 200 MBq ^64Cu-SAR-bisPSMA PET/CT, concordant lesions averaged per participant, N=17): 40.28
SUVmax Max [1, 5]: 100
SUVmax Median [1, 5]: 41.00
SUVmax Min [1, 5]: 6.1
SUVmean Max [1, 5]: 69.9
SUVmean Mean [1, 5]: 31.78
SUVmean Median [1, 5]: 28.07
SUVmean Min [1, 5]: 4.4
TTBR (Tumour-to-Background Ratio) Mean [1, 5]: 86.40
TTBR Max [1, 5]: 212.8
TTBR Median [1, 5]: 76.34
TTBR Min [1, 5]: 6.7
SUVmax Median Difference ([1]; Table 2, second reader, N=13): 27.03
SUVmean Median Difference ([1]; Table 2, second reader, N=13): 18.44
TTBR Median Difference ([1]; Table 2, second reader, N=13): 45.37
SUVmax Mean ([1]; Table 2, second reader, ^68Ga-PSMA-11 vs 200 MBq ^64Cu-SAR-bisPSMA PET/CT, concordant lesions averaged per participant, N=13): 47.37
SUVmax Max ([1]; Table 3, first reader, N=28): 100.00
SUVmax Median ([1]; Table 3, first reader, N=28): 30.26
SUVmax Min ([1]; Table 3, first reader, N=28): 8.00
SUVmean Max ([1]; Table 3, first reader, N=28): 69.90
SUVmean Mean ([1]; Table 3, first reader, N=28): 27.41
SUVmean Median ([1]; Table 3, first reader, N=28): 21.20
SUVmean Min ([1]; Table 3, first reader, N=28): 5.40
TTBR (Tumour-to-Background Ratio) Mean ([1]; Table 3, first reader, N=28): 83.38
TTBR Max ([1]; Table 3, first reader, N=28): 294.10
TTBR Median ([1]; Table 3, first reader, N=28): 53.55
TTBR Min ([1]; Table 3, first reader, N=28): 10.30
SUVmax Median Difference ([1]; Table 3, first reader, N=28): 14.23
SUVmean Median Difference ([1]; Table 3, first reader, N=28): 9.26
TTBR Median Difference ([1]; Table 3, first reader, N=28): 27.94
SUVmax Mean ([1]; Table 3, first reader, ^68Ga-PSMA-11 (200 MBq) vs ^64Cu-SAR-bisPSMA (200 MBq) PET/CT, lesions averaged per participant, N=28): 41.66
SUVmax Max ([1]; Table 4, second reader, N=16): 100
SUVmax Median ([1]; Table 4, second reader, N=16): 41.66
SUVmax Min ([1]; Table 4, second reader, N=16): 6.1
SUVmean Max ([1]; Table 4, second reader, N=16): 69.9
SUVmean Mean ([1]; Table 4, second reader, N=16): 33.24
SUVmean Median ([1]; Table 4, second reader, N=16): 28.4
SUVmean Min ([1]; Table 4, second reader, N=16): 4.4
TTBR (Tumour-to-Background Ratio) Mean ([1]; Table 4, second reader, N=16): 93.86
TTBR Max ([1]; Table 4, second reader, N=16): 243.9
TTBR Median ([1]; Table 4, second reader, N=16): 78.37
TTBR Min ([1]; Table 4, second reader, N=16): 6.7
SUVmax Median Difference ([1]; Table 4, second reader, N=16): 27.99
SUVmean Median Difference ([1]; Table 4, second reader, N=16): 18.78
TTBR Median Difference ([1]; Table 4, second reader, N=16): 46.93
SUVmax Mean ([1]; Table 4, second reader, ^68Ga-PSMA-11 (200 MBq) vs ^64Cu-SAR-bisPSMA (200 MBq) PET/CT, lesions averaged per participant, N=16): 49.73
Tumor to background ratio compared between ^64Cu-Sar-bisPSMA and ^68Ga-PSMA-11 (words) ([1]; listed as 64Cu-Sar-bisPSMA): higher
Tumor to background ratio compared between ^64Cu-Sar-bisPSMA and ^68Ga-PSMA-11 (words) ([1]; listed as 64Cu-SarbisPSMA): higher tumour to background ratio
SUVmean of lesions compared between ^64Cu-Sar-bisPSMA and ^68Ga-PSMA-11 (words) [1]: consistently higher
SUVmean of lesions compared between ^64Cu-Sar-bisPSMA and ^68Ga-PSMA-11 (words) ([1]; listed as 64Cu-Sar-bis-PSMA): higher SUVmean
SUVmean of lesions compared between ^64Cu-Sar-bisPSMA and ^68Ga-PSMA-11 (words) ([1]; listed as 64Cu-Sar-bisPSMA): greater
SUVmax of lesions compared between ^64Cu-Sar-bisPSMA and ^68Ga-PSMA-11 (words) [1]: consistently higher
SUVmax of lesions compared between ^64Cu-Sar-bisPSMA and ^68Ga-PSMA-11 (words) ([1]; listed as 64Cu-Sar-bisPSMA): higher SUVmax; also recorded: greater
SUVmax of lesions compared between ^64Cu-Sar-bisPSMA and ^68Ga-PSMA-11 (words) ([1]; listed as 64Cu-SarbisPSMA): higher SUVmax
Mean Difference in number of lesions (^64Cu − ^68Ga) ([2]; 200 MBq Cohort, Reader 1): 0.28
Mean Number of Lesions per Participant ([2]; 200 MBq Cohort, Reader 1): 2.3
Median Difference in number of lesions (^64Cu − ^68Ga) ([2]; 200 MBq Cohort, Reader 1): 0.0
Median Number of Lesions per Participant ([2]; 200 MBq Cohort, Reader 1): 2
Total # of Lesions Detected (all participants) ([2]; 200 MBq Cohort, Reader 1): 41
Mean Difference in number of lesions (^64Cu − ^68Ga) ([2]; 200 MBq Cohort, Reader 2): 0.64
Mean Number of Lesions per Participant ([2]; 200 MBq Cohort, Reader 2): 2.2
Median Difference in number of lesions (^64Cu − ^68Ga) ([2]; 200 MBq Cohort, Reader 2): 0.0
Median Number of Lesions per Participant ([2]; 200 MBq Cohort, Reader 2): 2
Total # of Lesions Detected (all participants) ([2]; 200 MBq Cohort, Reader 2): 31
Mean Difference in number of lesions (^64Cu − ^68Ga) ([2]; All Cohorts, Reader 1 (N = 29)): 0.41
Mean Number of Lesions per Participant ([2]; All Cohorts, Reader 1 (N = 29)): 2.2
Median Difference in number of lesions (^64Cu − ^68Ga) ([2]; All Cohorts, Reader 1 (N = 29)): 0.0
Median Number of Lesions per Participant ([2]; All Cohorts, Reader 1 (N = 29)): 2
Total # of Lesions Detected (all participants) ([2]; All Cohorts, Reader 1 (N = 29)): 63
Mean Difference in number of lesions (^64Cu − ^68Ga) ([2]; All Cohorts, Reader 2 (N = 17)): 0.52
Mean Number of Lesions per Participant ([2]; All Cohorts, Reader 2 (N = 17)): 2
Median Difference in number of lesions (^64Cu − ^68Ga) ([2]; All Cohorts, Reader 2 (N = 17)): 0.0
Median Number of Lesions per Participant ([2]; All Cohorts, Reader 2 (N = 17)): 4
Total # of Lesions Detected (all participants) ([2]; All Cohorts, Reader 2 (N = 17)): 34
% TPR (True Positive Rate), detection of primary prostate cancer ([2]; Reader 1): 100.0%
Positive images (primary prostate cancer) ([2]; Reader 1, 200 MBq ^64Cu-Sar-bisPSMA cohort, scans/evaluable scans): 18/18
% TPR (True Positive Rate), detection of primary prostate cancer ([2]; Reader 1, listed as 64Cu-Sar-bisPSMA): 100%
Indeterminate images [2, 6]: 0/18
Negative images [2, 6]: 0/18
% FNR (False Negative Rate) ([2]; Reader 1): 0.0%
% TPR (True Positive Rate), detection of primary prostate cancer ([2]; Reader 2): 85.7%
Indeterminate images [2, 7]: 2/14*
Negative images [2, 7]: 0/14*
Positive images (primary prostate cancer) [2, 7]: 12/14*
% FNR (False Negative Rate) ([2]; Reader 2): 14.3%
Total, mean and median number of lesions detected compared with ^68Ga-PSMA-11 ([2]; both readers): higher
Detection of secondary lesion in lymph node by PET/CT (FIG. 3) [2]: Detection of a secondary lesion
Detection of secondary lesion in lymph node by PET/CT (FIG. 3) ([2]; listed as compound of Formula (I) complexed with ^64Cu): clearly identifies a lesion
Amount retained at the tumor site relative to ^64Cu-SarPSMA (FIG. 1) ([3]; 6 and 24 hours after administration): far greater
Ex vivo tumor uptake relative to monomeric ^64Cu-Sar-PSMA (FIG. 1) ([3]; 1 hour after administration, 2 MBq, n=3/group): approximately double
Uptake and retention at tumors, dimer versus monomer (FIG. 1) ([3]; mouse, in vivo): higher uptake and retention
